Read-outs that look alike come from different tables or passages of the source.
How the values were obtained:
[1] = tested on: cGMP in the cerebrospinal fluid; test: Effect on rodent cerebrospinal fluid cGMP (rat); type: in vivo; settings: po, read-out: % CSF cGMP increase from vehicle control
Experimental: 3) Effect on Rodent Cerebrospinal Fluid cGMP
The test compound was administered to ICR male mice (Charles River Laboratories Japan, Inc.), Sprague-Dawley male rats (SD) (Charles River Laboratories Japan, Inc.) or Long-Evans male rats (LE) (Institute for Animal Reproduction), and the cerebrospinal fluid was then collected under pentobarbital anesthesia and stored at −20° C. cGMP in the cerebrospinal fluid was measured in accordance with the acetylation EIA procedure of cGMP EIA kit (GE Healthcare) or the non-acetylation procedure of cGMP EIA kit (Cayman) The result was an increase (C) in the amount of cGMP of the test compound-administered group (B) relative to the amount of cGMP of the vehicle-administered group (A), and was calculated using the following formula cGMP increase(C)=[(B)−(A)]/(A)×100(%)

[2] = molecular target: T1, human recombinant PDE9 protein (Homo sapiens, UniProt O76083); test: PDE9 inhibitory activity test (measurement of PDE9 inhibitory action, [3H]-cGMP); type: biochemical; settings: PDE9 IC50, human recombinant PDE9, 30° C., 10 min
T1 construct: His-tag (inferred from the Ni column purification; a myc His-tag vector is named only for the HEK293 expression check); made in house; host or cells: silkworm (pYNG vector, Katakura Industries)
Excerpt: 1) Preparation of a Human Recombinant PDE9 Protein
An hsPDE9A 1cDNA fragment was amplified by being based on a base sequence (Accession No.: AF048837) of the hsPDE9A1 registered on GenBank data base, and by using the following sequences (Hokkaido System Science Co., Ltd.) as a primer and Human hippocampus cDNA library (Clontech Laboratories, Inc.) as a template DNA, and using Pfu50 DNA polymerase (Invitrogen Corp.), and by a polymerase chain reaction (PCR) of the following condition.
The condition of PCR: [96° C., 5 min]×1 cycle, [(96° C., 10 sec), (57° C., 5 sec), (72° C., 2 min)]×30 cycles
The obtained hsPDE9A 1 cDNA fragment was incorporated in a TOPO-TA cloning vector (Invitrogen Corp.), and the base sequence was checked; and thereafter, the resultant was transfected in a pcDNA 3.1/myc His-tag vector (Invitrogen Corp.) to thereby make a human PDE9 expression vector for mammal cells. The human PDE9 expression vector for mammal cells was transfected with transient expression to an HEK293 cell by using a LIPOFETAMINE 2000 Reagent (Gibco). It was confirmed by Western blot method that the PDE9A expressed in the HEK293 cell, and then, the human PDE9A 1cDNA fragment was transfected in a pYNG vector (Katakura Industries Co., Ltd.) to thereby make an expression vector for insect cells. A supernatant of homogenized silk worm in which a large amount of PDE9 was expressed was purified by an equilibrated Ni column using a buffer A (20 mmol/L Tris-HCl, pH: 8.0, 1 mmol/L DTT, 10 mmol/L imidazole). After 1 hour of mixing of the supernatant and the Ni column, cleaning was carried out using a buffer B (20 mmol/L Tris-HCl, pH: 8.0, 1 mmol/L […]), and elution was carried out using a buffer C (20 mmol/L Tris-HCl, pH: 8.0, 1 mmol/L DTT, 100 mmol/L imidazole). An elution fraction was preparatively collected to thereby obtain a PDE9 enzyme solution.
2) Measurement of PDE9 Inhibitory Action
To 100 μL of a buffer D (40 mmol/L Tris-HCl, pH: 7.4, 10 mmol/L MgCl2, 1 mM DTT, 2 μM cGMP) solution containing [^3H]-cGMP ([…]/mL), 10 μL of a compound solution for evaluation (a solution in which a compound was dissolved in DMSO and diluted so that the DMSO concentration became 5%) and 90 μL of a solution prepared by diluting the PDE9 enzyme solution prepared in the above with a buffer E (40 mmol/L Tris-HCl, pH: 7.4, 10 mmol/L MgCl2, 1 mM DTT, 1 mmol/L EGTA) were added under ice cooling. The resultant mixed solution was incubated at 30° C. for 10 min, and thereafter heated for 2 min in boiled water to stop the enzyme reaction of the PDE9. Then, the resultant was returned to room temperature; 50 μL of 5′-Nucleotidase (Biomol GmbH, 10 units/mL) was added thereto; and the resultant was incubated at 30° C. for 10 min to thereby convert [^3H]-5′-GMP formed in the previous reaction to [^3H]-guanosine. 500 μL of an anion exchange resin (Bio-Rad AG1-X2 resin, mesh size: 200-400, H2O:resin=2:1) was added to the resultant reaction liquid, and allowed to stand for 10 min, and thereafter centrifuged (2,000 rpm, 10 min); and a supernatant in which the [^3H]-guanosine was present was transferred to a LumaPlate (PerkinElmer, Inc.), and the radioactivity was measured by a TopCount NXT microplate scintillation and luminescence counter (PerkinElmer, Inc.).
The inhibition percentage of the evaluation compound was calculated using the following expression, taking the radioactivity of a control containing no evaluation compound to be (A), the radioactivity of a blank containing no enzyme to be (B), and the radioactivity of the evaluation compound to be (C). Inhibition percentage=100−{[(C)−(B)]/[(A)−(B)]}×100(%)
The IC50 value for PDE9 of the evaluation compound was determined from inhibition percentage for various concentrations.

cGMP in the hippocampus = test: Effect on rodent hippocampal cGMP; type: in vivo, rat; settings: Rattus norvegicus, po, read-out: % hippocampal cGMP increase from vehicle control
Experimental: 4) Effect on Rodent Hippocampal cGMP
The test compound was administered to Sprague-Dawley male rats (Charles River Laboratories Japan, Inc.) or Long-Evans male rats (Institute for Animal Reproduction) and then the animals were sacrificed with microwave under pentobarbital anesthesia, and the hippocampus was extracted. After measuring the wet weight, the hippocampus was frozen with liquid nitrogen and stored at −80° C. In the measurement of cGMP in the hippocampus, a 0.5 M perchloric acid/1 mM EDTA solution was added at 5% (w/v) based on the wet weight, and the mixture was homogenized. After the homogenization, the homogenate was centrifuged (10000 rpm, 15 min), and the supernatant was collected. The collected supernatant was neutralized with a 2 M potassium bicarbonate solution and centrifuged (13000 rpm, 10 min). The cGMP concentration in the supernatant was measured in accordance with the non-acetylation EIA procedure of cGMP EIA kit (GE Healthcare). The result was an increase (C) in the amount of cGMP of the test compound-administered group (B) relative to the amount of cGMP of the vehicle-administered group (A), and was calculated using the following formula. cGMP increase(C)=[(B)−(A)]/(A)×100(%)

T1 sequence (O76083 whole entry): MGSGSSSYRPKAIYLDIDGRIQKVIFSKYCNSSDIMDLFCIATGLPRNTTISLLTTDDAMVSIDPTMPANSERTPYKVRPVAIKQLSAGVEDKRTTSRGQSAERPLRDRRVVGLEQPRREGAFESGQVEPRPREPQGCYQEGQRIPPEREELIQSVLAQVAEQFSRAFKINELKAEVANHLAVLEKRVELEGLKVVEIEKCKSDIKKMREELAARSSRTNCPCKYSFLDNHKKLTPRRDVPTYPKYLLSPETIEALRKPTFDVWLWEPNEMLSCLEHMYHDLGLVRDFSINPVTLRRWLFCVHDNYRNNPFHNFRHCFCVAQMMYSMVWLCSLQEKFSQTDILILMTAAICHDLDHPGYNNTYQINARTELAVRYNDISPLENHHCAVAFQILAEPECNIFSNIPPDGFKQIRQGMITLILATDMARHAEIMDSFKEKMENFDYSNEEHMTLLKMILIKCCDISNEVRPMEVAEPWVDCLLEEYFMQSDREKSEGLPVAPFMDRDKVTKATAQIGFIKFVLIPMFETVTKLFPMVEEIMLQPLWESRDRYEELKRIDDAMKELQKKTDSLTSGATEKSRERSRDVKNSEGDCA

SMILES	IC50 [2] [nM]	also measured
COc1nccc(C)c1-c1ccc2c(c1)[nH]c(=O)c1cnn(C3CCOC3)c12 (single isomer, unassigned) [32 (−)]	12.2	change in vivo at 10 mg/kg ([1]; rat(SD), 10 mg/kg p.o., sampling time 1 hr): 72%
COc1nc(C)cc(C)c1-c1ccc2c(c1)[nH]c(=O)c1cnn(C3CCOC3)c12 (single isomer, unassigned; (-)) [28 (−), (−)-7-(2-methoxy-4,6-dimethylpyridin-3-yl)-1-(tetrahydrofuran-3-yl)-1H-pyrazolo[4,3-c]quinolin-4(5H)-one]	8.36	change in vivo at 3 mg/kg ([1]; Rattus norvegicus, 1 h): 257%
COc1cc(C)c(-c2ccc3c(c2)[nH]c(=O)c2cnn(C4CCOC4)c23)c(C)n1 (single isomer, unassigned; (-)) [29 (−), (−)-7-(6-methoxy-2,4-dimethylpyridin-3-yl)-1-(tetrahydrofuran-3-yl)-1H-pyrazolo[4,3-c]quinolin-4(5H)-one]	30.7	change in vivo at 30 mg/kg ([1]; Rattus norvegicus, 1 h): 238%; change in vivo at 30 mg/kg (cGMP in the hippocampus; 1 h): 34%
COc1ncc(C)c(-c2ccc3c(c2)[nH]c(=O)c2cnn([C@H]4CCOC4)c23)c1C [26 S]	–	change in vivo at 10 mg/kg ([1]; Rattus norvegicus, 1 h): 274%; change in vivo at 10 mg/kg (cGMP in the hippocampus; 1 h): 58%
COc1cc(C)c(-c2ccc3c(c2)[nH]c(=O)c2cnn(C4CCOCC4)c23)c(C)n1 [Example 3, 7-(6-methoxy-2,4-dimethylpyridin-3-yl)-1-(tetrahydro-2H-pyran-4-yl)-1H-pyrazolo[4,3-c]quinolin-4(5H)-one]	14	change in vivo at 10 mg/kg ([1]; Rattus norvegicus, 2 h): 186%; change in vivo at 10 mg/kg (cGMP in the hippocampus; 4 h): 32%
COc1nccc(C)c1-c1ccc2c(c1)[nH]c(=O)c1cnn(C3CCOCC3)c12 [Example 6, 7-(2-methoxy-4-methylpyridin-3-yl)-1-(tetrahydro-2H-pyran-4-yl)-1H-pyrazolo[4,3-c]quinolin-4(5H)-one]	6.86	change in vivo at 10 mg/kg ([1]; Rattus norvegicus, 1 h): 120%
COc1ncc(F)c(C)c1-c1ccc2c(c1)[nH]c(=O)c1cnn(C3CCOCC3)c12 [Example 12]	19.7	change in vivo at 3 mg/kg ([1]; Rattus norvegicus, 1 h): 91%
Cc1cc(OC(F)F)nc(C)c1-c1ccc2c(c1)[nH]c(=O)c1cnn(C3CCOCC3)c12 [Example 18]	9.3	change in vivo at 3 mg/kg ([1]; Rattus norvegicus, 1 h): 123%
CCOc1nccc(C)c1-c1ccc2c(c1)[nH]c(=O)c1cnn(C3CCOCC3)c12 [Example 23, 7-(2-ethoxy-4-methylpyridin-3-yl)-1-(tetrahydro-2H-pyran-4-yl)-1H-pyrazolo[4,3-c]quinolin-4(5H)-one]	9.51	–
COc1cc(C)c(-c2ccc3c(c2)[nH]c(=O)c2cnn(C4CCOCC4)c23)c(CF)n1 [Example 24]	18.7	change in vivo at 10 mg/kg ([1]; Rattus norvegicus, 1 h): 149%
Cc1cc(C2CCOCC2)cc(C)c1-c1ccc2c(c1)[nH]c(=O)c1cnn(C3CCOCC3)c12 [Example 40, 7-[2,6-dimethyl-4-(tetrahydro-2H-pyran-4-yl)phenyl]-1-(tetrahydro-2H-pyran-4-yl)-1H-pyrazolo[4,3-c]quinolin-4(5H)-one]	3.21	–
COc1cc(C)c(-c2ccc3c(c2)[nH]c(=O)c2cnn(C4COCCOC4)c23)c(C)c1 [Example 44]	12.1	–
COc1nc(C)cc(C)c1-c1ccc2c(c1)[nH]c(=O)c1cnn(C3COCCOC3)c12 [Example 45, 1-(1,4-dioxepan-6-yl)-7-(2-methoxy-4,6-dimethylpyridin-3-yl)-1H-pyrazolo[4,3-c]quinolin-4(5H)-one]	3.33	–
COc1cc(C)c(-c2ccc3c(c2)[nH]c(=O)c2cnn(C4COCCOC4)c23)c(C)n1 [Example 46]	18.1	–
COc1nccc(C)c1-c1ccc2c(c1)[nH]c(=O)c1cnn(C3COCCOC3)c12 [Example 47]	5.67	–

More lines, main results first:

IC50 [2] [nM]	SMILES	also measured
8.35	Cc1cnc(OC(C)C)c(C)c1-c1ccc2c(c1)[nH]c(=O)c1cnn([C@H]3CCOC3)c12 [Example 48, (S)-7-(2-isopropyloxy-3,5-dimethylpyridin-4-yl)-1-(tetrahydrofuran-3-yl)-1H-pyrazolo[4,3-c]quinolin-4(5H)-one]	–
12.2	Cc1cnc(OC(F)F)c(C)c1-c1ccc2c(c1)[nH]c(=O)c1cnn([C@H]3CCOC3)c12 [Example 49]	–
6.51	CCOc1ncc(C)c(-c2ccc3c(c2)[nH]c(=O)c2cnn([C@H]4CCOC4)c23)c1C [Example 50]	–
4.77	COc1nc(C)cc(C)c1-c1cc2[nH]c(=O)c3cnn(C4CCOCC4)c3c2cc1F [Example 52, 8-fluoro-7-(2-methoxy-4,6-dimethylpyridin-3-yl)-1-(tetrahydro-2H-pyran-4-yl)-1H-pyrazolo[4,3-c]quinolin-4(5H)-one]	–
10.1	CCc1c(OC)ncc(C)c1-c1ccc2c(c1)[nH]c(=O)c1cnn([C@H]3CCOC3)c12 [Example 56, (S)-7-(3-ethyl-2-methoxy-5-methylpyridin-4-yl)-1-(tetrahydrofuran-3-yl)-1H-pyrazolo[4,3-c]quinolin-4(5H)-one]	–
43.9	COc1ncc(C)c(-c2cc3[nH]c(=O)c4cnn([C@@H]5CCOC5)c4c3cc2F)c1C [Example 57, (R)-8-fluoro-7-(2-methoxy-3,5-dimethylpyridin-4-yl)-1-(tetrahydrofuran-3-yl)-1H-pyrazolo[4,3-c]quinolin-4(5H)-one]	–
11.7	COc1nc(C)cc(C)c1-c1cc2[nH]c(=O)c3cnn([C@@H]4CCOC4)c3c2cc1F [Example 58]	–
71.5	COc1cc(C)c(-c2cc3[nH]c(=O)c4cnn([C@@H]5CCOC5)c4c3cc2F)c(C)n1 [Example 59]	–
11.1	CCOc1cc(C)c(-c2ccc3c(c2)[nH]c(=O)c2cnn([C@H]4CCOC4)c23)c(C)n1 [Example 62, (S)-7-(6-ethoxy-2,4-dimethylpyridin-3-yl)-1-(tetrahydrofuran-3-yl)-1H-pyrazolo[4,3-c]quinolin-4(5H)-one]	change in vivo at 3 mg/kg ([1]; Rattus norvegicus, 1 h): 155%
